Test results published in patent publication US8163778B2 (Hoffmann-LA Roche Inc., priority 2007, dated 2012).

Each molecule was assayed against T1, human liver FBPase (Homo sapiens, UniProt P09467) (assay: FBPase assay (malachite green phosphate release)). Conditions: recombinant human liver FBPase, 50 μM fructose-1,6-bisphosphate.
T1 construct: made in house; host or cells: E. coli
T1 sequence (P09467 2-338 limits assumed): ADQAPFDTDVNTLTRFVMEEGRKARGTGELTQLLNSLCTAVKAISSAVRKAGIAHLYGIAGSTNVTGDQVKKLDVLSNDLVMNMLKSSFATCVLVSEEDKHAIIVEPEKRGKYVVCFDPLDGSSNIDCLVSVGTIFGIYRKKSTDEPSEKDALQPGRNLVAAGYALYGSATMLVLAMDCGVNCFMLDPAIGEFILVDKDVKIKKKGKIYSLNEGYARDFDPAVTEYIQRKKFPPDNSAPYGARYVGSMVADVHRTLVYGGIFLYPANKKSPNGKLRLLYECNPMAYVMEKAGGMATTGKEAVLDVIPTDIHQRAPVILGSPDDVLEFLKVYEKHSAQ
Type: biochemical
Method in brief: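 Recombinant human liver FBPase (E. coli-expressed, heat-treated, purified) reacted with 50 μM fructose-1,6-bisphosphate in pH 7.2 HEPES, 2 mM MgCl2, 1% DMSO, 50 min at room temperature. Released phosphate quantified with malachite green/ammonium molybdate reagent at 620 nm.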

Row | IC50 [nM] | SMILES
1 | 96 | CNC(=O)Nc1cc(SC)cc(NC(=O)NS(=O)(=O)c2csc(C)c2)n1 [Compound 16, 5-Methyl-N-({6-[(methylcarbamoyl)amino]-4-(methylthio)pyridin-2-yl}carbamoyl)thiophene-3-sulfonamide]
2 | 42000 | COCCc1sc(S(=O)(=O)NC(=O)Nc2cc(C(N)=O)cc(N)n2)cc1C [Compound 102, 2-Amino-6-[({[5-(2-methoxyethyl)-4-methyl-2-thienyl]sulfonyl}carbamoyl)amino]isonicotinamide]
3 | 558 | COCCc1sc(S(=O)(=O)NC(=O)Nc2cc(C(F)(F)F)c(F)c(N)n2)cc1C [Compound 79, N-{[6-Amino-5-fluoro-4-(trifluoromethyl)pyridin-2-yl]carbamoyl}-5-(2-methoxyethyl)-4-methylthiophene-2-sulfonamide]
4 | 730 | Cc1csc(S(=O)(=O)NC(=O)Nc2cc(C(F)(F)F)cc(C)n2)c1 [Compound 122, 4-Methyl-N-{[6-methyl-4-(trifluoromethyl)pyridin-2-yl]carbamoyl}thiophene-2-sulfonamide]
5 | 2780 | COCCc1sc(S(=O)(=O)NC(=O)Nc2cc(SC)cc(C(N)=NO)n2)cc1C [Compound 115, N′-Hydroxy-6-[({[5-(2-methoxyethyl)-4-methyl-2-thienyl]sulfonyl}carbamoyl)amino]-4-(methylthio)pyridine-2-carboximidamide]
